Test results as given in patent US20040072738A1, “Analogues of thiocoraline and be-22179” (priority 2000, published 2004).
Bridge positions count the residues as written; N and C are the ends. Square brackets hold non-standard residues; d marks the D form. Peptide text beside a SMILES is read from it. I, II: the chains in the order shown. * marks the point of attachment. Quinaldoyl(3-OH) = O=C(c1nc2ccccc2cc1O)*; NMeC = CN[C@@H](CS)C(=O)O

Columns and labels:
[1] = test system: supercoiled ΦX174 DNA; test: DNA cleavage assay, conversion of Form I to Form II or Form III; type: biochemical
Source text: Also examined was the ability of 1 or 2 to cleave, alkylate, or cross-link DNA. In particular, the electrophilic unsaturation found in BE-22179 might be expected to serve as an alkylation site for covalent attachment to DNA, especially following bisintercalation binding. […] These studies would detect both thermally labile and non thermally labile alkylation sites, but only those engaged in interstrand cross-linking. Given the C2 symmetric nature of 2, bisintercalation analogous to echinomycin and triostin A places the two electrophilic sites in positions to react only with the complementary strands of duplex DNA (interstrand DNA cross-linking) and would preclude intrastrand DNA cross-linking.

[2] = test system: supercoiled ΦX174 DNA; test: unwinding and rewinding of negatively supercoiled DNA, agarose gel electrophoresis; type: biochemical
Source text: Confirmation that thiocoraline and BE-22179 bind to DNA with bisintercalation was derived from their ability to induce the unwinding of negatively supercoiled DNA. This was established by their ability to gradually decrease the agarose gel electrophoresis mobility of supercoiled ΦX174 DNA (unwinding) at increasing concentrations followed by a return to normal mobility (rewinding) at even higher concentrations. Under the conditions employed, echinomycin unwound ΦX174 DNA at a 0.044 agent/base pair ratio (FIG. 11 and FIG. 12). Thiocoraline completely unwound ΦX174 DNA at a higher 0.11 agent/base pair ratio, whereas BE-22179 required even higher concentrations producing the unwinding at an agent/base pair ratio of 1.1. […] Thus, the distinctions in 1 and 2 and echinomycin detected here appear to be related to the nature of the cyclic depsipeptide and not the structure of the chromophore.
FIG. 8 is a table of comparative DNA binding properties. ^aCalf thymus DNA, KB=apparent binding constant determined by fluorescence quenching. The value in paren-theses is the agent/base pair ratio at saturated high-affinity binding and may be considered a measure of the selectivity of binding. ^bAgent/base pair ratio required to unwind negatively supercoiled FX174 DNA (form I to form II gel mobility, 0.9% agarose gel). ^cAgent/base pair ratio required to induce complete rewinding or positive super-coiling of FX174 DNA (form II to form I gel mobility, 0.9% agarose gel). ^dBinding constant established by footprinting at a 5′-CCGC site (FIG. 9).
(A) Lane 1, untreated supercoiled FX174 DNA, 95% form 1 and 5% form II; lanes 2-8, thiocoraline-treated FX174 DNA; lanes 9-14, echinomycin-treated FX174 DNA. The [agent]-to-[base pair] ratios were 0.022 (lanes 2 and 9), 0.033 (lanes 3 and 10), 0.044 (lanes 4 and 11), 0.066 (lanes 5 and 12), 0.11 (lanes 6 and 13), 0.22 (lanes 7 and 14), and 0.44 (lane 8). (B) Lane 1, untreated supercoiled FX174 DNA, lanes 2-12, BE-22179-treated FX174 DNA. The [agent]-to-[base pair] ratios were 0.022, (lane 2), 0.033 (lane 3), 0.044 (lane 4), 0.066 (lane 5), 0.11 (lane 6), 0.22 (lane 7), and 0.33 (lane 8), 0.44 (lane 9), 0.66 (lane 10), 1.1 (lane 11), and 2.2 (lane 12). (C) Lane 1, untreated supercoiled FX174 DNA, 95% form 1 and 5% form II; lanes 2-8, thiocoraline analogue (27)-treated FX174 DNA. The [agent]-to-[base pair] ratios were 0.022 (lane 2), 0.033 (lane 3), 0.044 (lane 4), 0.066 (lane 5), 0.11 (lane 6), 0.22 (lane 7), and 0.44 (lane 8).

[3] = molecular target: T1, DNA polymerase α (Homo sapiens, UniProt P09884); details: at concentrations that inhibit cell cycle progression and clonogenicity; cited from earlier work
T1 sequence (P09884 1-1462): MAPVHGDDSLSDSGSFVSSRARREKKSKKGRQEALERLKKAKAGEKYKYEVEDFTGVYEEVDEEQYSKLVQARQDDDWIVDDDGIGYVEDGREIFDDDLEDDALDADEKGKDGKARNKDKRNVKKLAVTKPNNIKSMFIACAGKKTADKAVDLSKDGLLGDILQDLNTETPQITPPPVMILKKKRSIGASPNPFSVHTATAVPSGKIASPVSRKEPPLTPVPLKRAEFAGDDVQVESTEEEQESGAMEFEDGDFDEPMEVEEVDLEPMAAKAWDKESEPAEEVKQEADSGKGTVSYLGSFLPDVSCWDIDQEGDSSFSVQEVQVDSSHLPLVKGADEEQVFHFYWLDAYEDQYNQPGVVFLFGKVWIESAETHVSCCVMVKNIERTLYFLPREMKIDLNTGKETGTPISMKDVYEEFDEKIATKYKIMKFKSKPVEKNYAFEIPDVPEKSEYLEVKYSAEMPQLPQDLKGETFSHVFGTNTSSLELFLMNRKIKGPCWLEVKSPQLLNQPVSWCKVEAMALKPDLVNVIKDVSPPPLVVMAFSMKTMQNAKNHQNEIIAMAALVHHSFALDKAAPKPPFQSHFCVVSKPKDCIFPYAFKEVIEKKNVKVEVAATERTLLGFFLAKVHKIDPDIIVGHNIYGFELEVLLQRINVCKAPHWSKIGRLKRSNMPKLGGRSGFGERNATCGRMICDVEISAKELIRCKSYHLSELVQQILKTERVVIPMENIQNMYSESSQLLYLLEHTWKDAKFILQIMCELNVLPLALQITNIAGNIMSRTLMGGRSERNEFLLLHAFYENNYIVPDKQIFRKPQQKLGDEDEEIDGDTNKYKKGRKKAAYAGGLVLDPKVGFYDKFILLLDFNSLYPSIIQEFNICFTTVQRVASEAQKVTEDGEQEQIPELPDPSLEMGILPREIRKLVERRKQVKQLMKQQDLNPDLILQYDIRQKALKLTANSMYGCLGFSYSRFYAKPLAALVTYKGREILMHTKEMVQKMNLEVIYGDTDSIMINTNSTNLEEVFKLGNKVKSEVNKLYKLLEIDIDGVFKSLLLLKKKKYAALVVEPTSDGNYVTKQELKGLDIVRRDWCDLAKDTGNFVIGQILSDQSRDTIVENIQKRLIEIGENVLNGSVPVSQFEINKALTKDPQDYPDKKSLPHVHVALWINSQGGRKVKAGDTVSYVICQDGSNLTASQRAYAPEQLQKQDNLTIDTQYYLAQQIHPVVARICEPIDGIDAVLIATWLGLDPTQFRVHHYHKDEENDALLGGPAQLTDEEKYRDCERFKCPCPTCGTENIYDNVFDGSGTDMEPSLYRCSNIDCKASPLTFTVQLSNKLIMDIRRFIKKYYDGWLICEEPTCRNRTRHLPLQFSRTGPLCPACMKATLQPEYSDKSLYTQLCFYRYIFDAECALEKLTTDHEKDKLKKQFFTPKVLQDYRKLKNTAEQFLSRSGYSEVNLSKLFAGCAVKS

CSC[C@H]1C(=O)SC[C@@H](NC(=O)c2nc3ccccc3cc2O)C(=O)NCC(=O)N(C)[C@H]2CSSC[C@@H](C(=O)N1C)N(C)C(=O)CNC(=O)[C@H](NC(=O)c1nc3ccccc3cc1O)CSC(=O)[C@H](CSC)N(C)C2=O [Thiocoraline] (I: {Quinaldoyl(3-OH)}-[dC]G[NMeC][NMeC](Me) / II: {Quinaldoyl(3-OH)}-[dC]G[NMeC][NMeC](Me); thioester I:1-II:C, I:C-II:1; disulfide I:3-II:3)
DNA cleavage [1]: No evidence
agent/base pair ratio required to unwind supercoiled DNA ([2]; form I to form II gel mobility): 0.11 agent/base pair ratio
agent/base pair ratio for complete rewinding of supercoiled DNA ([2]; form II to form I gel mobility): 0.44 agent/base pair ratio
inhibition of DNA polymerase α [3]: does inhibit
